Experiments:
[1] = test system: Pancreatin from porcine pancreas; experiment: In vitro digestion of lunasin with pancreatin, with or without protease inhibitors; format: in vitro ADME; settings: pre-incubation with inhibitor 30 min at 25°C, pancreatin 1 h at 37°C, Western-Blot band intensity
Description: (§1) Figure 2 Soy-derived BBI and KTI protect synthetic lunasin from in vitro digestion. The upper, lighter bands are Coomassie Blue protein stains and the lower, darker bands are Western blots. (M) Markers, (1) Lunasin (600 ng) + pancreatin (600 ng) incubated for 0 h at 37°C, (2) Lunasin (600 ng) + pancreatin (600 ng) incubated for 1 h at 37°C, (3) Lunasin (600 ng) + BBI (18,000 ng, unboiled) + pancreatin (600 ng) incubated for 1 h at 37°C, (4). Lunasin (600 ng) + KTI (18,000 ng, unboiled) + pancreatin (600 ng) incubated for 1 h at 37°C, (5) Lunasin (600 ng) + BBI (18,000 ng, boiled) + pancreatin (600 ng) incubated for 1 h at 37°C, (6) Lunasin (600 ng)+KTI (18,000 ng, boiled) + pancreatin (600 ng) incubated for 1 h at 37°C, (7) BBI (unboiled), (8) KTI (unboiled).
(§2) In vitro digestion of lunasin was carried out following the method published in the United States Pharmacopeia. Synthetic lunasin (American Peptide Company, Inc. Sunnyvale, CA, USA) (5 µg) was incubated with the protease inhibitors BBI or KTI (Sigma, St. Louis, MO, USA) for 30 min at 25°C. Pancreatin from porcine pancreas (Sigma) was added (enzyme∶protein ratio of 1∶10) and solution was incubated at 37°C for 1 h. Tris-tricine sample buffer was added at the end of the reaction and immediately stopped by placing the tubes in a boiling water bath for 5 min. The digests were analyzed by SDS-PAGE and Western-Blot following the protocol previously described.

pancreatin = experiment: as above; format: in vitro ADME, porcine; settings: pig, pancreatin from porcine pancreas; in the presence of boiled KTI; pre-incubation with inhibitor 30 min at 25°C; pancreatin 1 h at 37°C; Western-Blot band intensity; read-out: lunasin remaining intact after digestion with pancreatin
Description: as §1, §2

skin papilloma = settings: applied topically at 250 mg/week; SENCAR mice; cited from earlier work
Source text: […] […] This is consistent with another observation that lunasin slows down epidermal cell proliferation in mouse skin in the absence and presence of DMBA using a ^2H2O label ...

[2] = Lunasin in blood and liver of rats fed LES diet for 4 weeks; format: in vivo; settings: female, Sprague-Dawley, rat, po, 0.25 % of the diet, rats fed dietary LES for 4 weeks
Source text: Sprague-Dawley Rats (Female, 5-weeks old) were purchased from Central Laboratory Animal Inc. (Korea), and experiments were done according with guidelines of the Animal Center at Andong National University (Andong, Korea). Five rats were fed ad libitum with LES and potato starch (0.25% of the diet) for 4 weeks, and then sacrificed. Livers and serum were collected and freeze-dried immediately. One gram of the freeze-dried tissues was extracted with 0.1 M PBS (pH 7.0) (buffer∶tissue ratio (v/w) = 1∶3) at 4°C for 24 hrs, and then centrifuged at 15000 rpm for 1 h. The supernatant protein was further purified by ion exchange chromatography on Biogel resin AG 1-X4 (BioRad), as described by Jeong et al.. Lunasin was further purified by injecting 20 µl of filtrate into the HPLC system equipped with a C18 column (Proteo 90A, Phenomenex Co., Torrance, CA, USA) equilibrated at ambient temperature and an UV detector (295 nm) stabilized with the mobile phase (acetonitrile∶water = 4∶6), at a flow rate of 2.5 ml/min for 15 min. Lunasin was identified by comparison with the retention time of standard synthetic lunasin peak. The lunasin fraction was collected, freeze dried and analyzed by SDS-PAGE and Western-Blot as described above.
Supplementary file pone.0008890.s002.tif: Figure S2 Lunasin was extracted from blood and liver of rats fed control and lunasin-enriched soy (LES) diets for four weeks. […]

[3] = test system: DMBA-induced NIH3T3 cells; experiment: Foci formation assay in DMBA-induced NIH3T3 cells; format: cell-based
Description: The foci formation assay was performed according to Reznikoff et al. NIH3T3 cells were obtained from American Type Culture Collection (ATCC) and cultured in RPMI 1640 medium supplemented with 10% fetal bovine serum (FBS) (Invitrogen, Carlsbad, CA, USA). Cells were plated at a density of 500 cells/well in 12-well plates, incubated overnight at 37°C and treated with lunasin or BBI for 4 hrs. Then, cells were treated with 1.5 µg/ml DMBA for 20 hrs. After washing with PBS, fresh medium was added. Peptides were added and medium was changed every week for 6 weeks. At the end of experiment, cells were washed with 0.9% NaCl, fixed with methanol, stained with Giemsa, and scored for transformed foci. The negative control was a set of cells receiving no DMBA, while the positive control consisted of cells induced by DMBA but without treatment.

SMILES: CC[C@H](C)[C@H](NC(=O)[C@H](CCCCN)NC(=O)[C@H](CCC(=O)O)NC(=O)[C@H](CCSC)NC(=O)[C@@H](NC(=O)[C@H](Cc1c[nH]cn1)NC(=O)[C@H](CCCCN)NC(=O)[C@H](CCC(=O)O)NC(=O)[C@H](CS)NC(=O)[C@@H]1CCCN1C(=O)[C@@H](NC(=O)[C@H](CC(C)C)NC(=O)[C@H](CC(N)=O)NC(=O)[C@@H](NC(=O)CNC(=O)[C@H](CCC(N)=O)NC(=O)[C@H](CC(C)C)NC(=O)[C@H](CCC(N)=O)NC(=O)[C@H](CCCCN)NC(=O)[C@H](CCCNC(=N)N)NC(=O)[C@H](CS)NC(=O)[C@H](CO)NC(=O)[C@H](CC(=O)O)NC(=O)[C@H](CCC(N)=O)NC(=O)[C@H](CCC(N)=O)NC(=O)[C@H](Cc1c[nH]cn1)NC(=O)[C@H](CCC(N)=O)NC(=O)[C@H](Cc1c[nH]c2ccccc12)NC(=O)[C@H](CCCCN)NC(=O)[C@@H](N)CO)C(C)C)[C@@H](C)O)[C@@H](C)CC)C(=O)N[C@@H](CCC(N)=O)C(=O)NCC(=O)N[C@@H](CCCNC(=N)N)C(=O)NCC(=O)N[C@@H](CC(=O)O)C(=O)N[C@@H](CC(=O)O)C(=O)N[C@@H](CC(=O)O)C(=O)N[C@@H](CC(=O)O)C(=O)N[C@@H](CC(=O)O)C(=O)N[C@@H](CC(=O)O)C(=O)N[C@@H](CC(=O)O)C(=O)N[C@@H](CC(=O)O)C(=O)N[C@@H](CC(=O)O)C(=O)O [lunasin]
- lunasin remaining intact after digestion with pancreatin ([1]; in the presence of boiled BBI): 98%
- lunasin remaining intact after digestion with pancreatin ([1]; in the presence of unboiled BBI): Approximately 93%
- lunasin remaining intact after digestion with pancreatin ([1]; in the presence of unboiled KTI): ~97%
- remaining at 1 h (pancreatin): 84%
- suppression of skin papilloma formation compared with the control (skin papilloma): 70%
- level at 672 h ([2]; blood, present as a monomer, Western-blot after anion exchange-HPLC purification, read-out: lunasin concentration in blood): 17.5 ng/mL
- tissue level at time at 672 h ([2]; liver, exists as a dimer, Western-blot, read-out: lunasin concentration in liver): 3100 ng/g
- lunasin more effective than BBI in foci formation inhibition on an equimolar basis ([3]; 100 nM each): 18%
- reduction of foci formation ([3]; 100 nM peptide, 1.5 µg/ml DMBA, 6 weeks, n = 6): 73%
- suppression of foci formation ([3]; 1 µM lunasin extracted from the liver of LES-fed rats, n = 6): as effectively as an equimolar amount of synthetic lunasin
